Source: patent US8591876B2, “Methods of decreasing sebum production in the skin” (priority 2010, dated 2013)

Key:
[1] = tested on: normal human keratinocytes (NHEK); assay: Cytotoxicity to normal human keratinocytes (NHEK), Cell Titer-Blue Cell Viability Assay; format: cell-based; details: in reference to cells incubated with media alone
human sebocytes (SEB-1) = assay: Cytotoxicity to human sebocytes (SEB-1), Cell Titer-Blue Cell Viability Assay; format: cell-based; details: in reference to cells incubated with media alone

In the case of `N[C@@H](CCC(=O)N[C@@H](CSN=O)C(=O)NCC(=O)O)C(=O)O` [GSNO, S-nitrogluthione], the “% NHEK Killed” value ([1]; 0.12 mg/ml, 24 hr) is reported as 4%, the “% NHEK Killed” value ([1]; 0.12 mg/ml, 48 hr) is reported as 5% and the “% NHEK Killed” value ([1]; 0.12 mg/ml, 72 hr) is reported as 15%. The “% NHEK Killed” value ([1]; 0.6 mg/ml, 24 hr) was 8%, the “% NHEK Killed” value ([1]; 0.6 mg/ml, 48 hr) was −11% and the “% NHEK Killed” value ([1]; 0.6 mg/ml, 72 hr) was −3%. For the same compound, the “% NHEK Killed” value ([1]; 1.2 mg/ml, 24 hr) was 34%, the “% NHEK Killed” value ([1]; 1.2 mg/ml, 48 hr) was 53% and the “% NHEK Killed” value ([1]; 1.2 mg/ml, 72 hr) was 44%. The “% SEB-1 Killed” value (human sebocytes (SEB-1); 0.12 mg/ml, 24 hr) was 6%, the “% SEB-1 Killed” value (human sebocytes (SEB-1); 0.12 mg/ml, 48 hr) was 11% and the “% SEB-1 Killed” value (human sebocytes (SEB-1); 0.12 mg/ml, 72 hr) was 19%. For the same compound, the “% SEB-1 Killed” value (human sebocytes (SEB-1); 0.6 mg/ml, 24 hr) was 48%, the “% SEB-1 Killed” value (human sebocytes (SEB-1); 0.6 mg/ml, 48 hr) was 68% and the “% SEB-1 Killed” value (human sebocytes (SEB-1); 0.6 mg/ml, 72 hr) was 67%. For the same compound, the “% SEB-1 Killed” value (human sebocytes (SEB-1); 1.2 mg/ml, 24 hr) was 85%, the “% SEB-1 Killed” value (human sebocytes (SEB-1); 1.2 mg/ml, 48 hr) was 97% and the “% SEB-1 Killed” value (human sebocytes (SEB-1); 1.2 mg/ml, 72 hr) was 98%.
